Publication PMC7281072 (Cancers, 2020)

Legend:
[1] = system: UWB1.289+BRCA1 cancer cell line; experiment: cells; settings: Homo sapiens, 48 h, read-out: IC50 (cytotoxic effect)
[2] = system: OVCAR-3 cancer cell line; experiment: cells; settings: Homo sapiens, OVCAR-3, 48 h
[3] = system: AKT1,2 phosphorylation; experiment: AKT phosphorylation ELISA, UWB1.289 cells; format: cell-based, human; settings: for Vmax ± SE, pAKT 1/2 inhibition: Michaelis Menten model; for IC50: Homo sapiens, read-out: IC50, pAKT 1/2 inhibition
[4] = system: SK-OV-3 cancer cell line; experiment: cells; settings: Homo sapiens, SK-OV-3, 48 h
[5] = system: SKOV-3 human ovarian adenocarcinoma xenograft; set-up: species or system CB17 SCID mice; settings: mouse, in vivo
[6] = system: CB17 SCID mice; settings: both, mouse, in vivo, ip
[7] = system: ERK1,2 phosphorylation; experiment: ERK1/2 phosphorylation ELISA, SK-OV-3 cells; format: cell-based, human; settings: for Vmax ± SE, pERK 1/2 inhibition: Michaelis Menten model; for IC50: Homo sapiens, read-out: IC50, pERK 1/2 inhibition
[8] = system: AKT1,2 phosphorylation; experiment: AKT phosphorylation ELISA, SK-OV-3 cells; format: cell-based, human; settings: for Vmax ± SE, pAKT 1/2 inhibition: Michaelis Menten model; for IC50: Homo sapiens, read-out: IC50, pAKT 1/2 inhibition
[9] = system: ERK1,2 phosphorylation; experiment: ERK1/2 phosphorylation ELISA, UWB1.289 cells; format: cell-based, human; settings: for Vmax ± SE, pERK 1/2 inhibition: Michaelis Menten model; for IC50: Homo sapiens, read-out: IC50, pERK 1/2 inhibition
[10] = system: OVCAR-5 cancer cell line; experiment: cells; settings: Homo sapiens, OVCAR-5, 48 h
[11] = system: ERK1,2 phosphorylation; experiment: ERK1/2 phosphorylation ELISA, UWB1.289+BRCA1 cells; format: cell-based, human; settings: for Vmax ± SE, pERK 1/2 inhibition: Michaelis Menten model; for IC50: Homo sapiens, read-out: IC50, pERK 1/2 inhibition
[12] = system: OVCAR-5 human ovarian adenocarcinoma xenograft; set-up: species or system CB17 SCID mice; settings: mouse, in vivo
[13] = system: UWB1.289+BRCA1 cancer cell line
[14] = read-out: GI50 (50% Growth Inhibition)
[15] = read-out: IC50 (cytotoxic effect)

C[C@]12CC[C@@H]3c4ccc(OC(=O)CCOc5ccc(N(CCCl)CCCl)cc5)cc4CC[C@H]3[C@@H]1CCC(=O)N2 [ENGA-L08E, 12a-methyl-2-oxo-1,2,3,4,4a,4b,5,6,10b,11,12,12a-dodecahydronaphtho[2,1-f]quinolin-8-yl 3-(4-(bis (2-chloroethyl)amino)phenoxy) propanoate]
IC50 [1]: 88 ± 8.1 µM
GI50 [2, 14]: 30 ± 2.1 µM
IC50 [2, 15]: 56 ± 3.2 µM
Vmax ± SE, pAKT 1/2 inhibition ([3]; 15 min): 63.02 ± 1.33
Vmax ± SE, pAKT 1/2 inhibition ([3]; 30 min): 68.23 ± 0.99
Vmax ± SE, pAKT 1/2 inhibition ([3]; 60 min): 70.28 ± 2.75
IC50 ([3]; UWB1289, 0.25 h, 15 min): 14.1 µM
IC50 ([3]; UWB1289, 0.5 h, 30 min): 8.24 µM
IC50 ([3]; UWB1289, 1 h, 60 min): 6.6 µM
GI50 [4, 14]: 10 ± 0.5 µM
IC50 [4, 15]: > 100 µM
Median Overall Survival (OS) [5]: 105 days
Progression Free Survival (PFS) [5]: 13 days
Response Rate (RR) [5]: 100%
Cures (mice alive for 120 days after tumor inoculation) ([5]; ip): 2/5
MST (mean survival time) ([5]; ip): 76.5 ± 3.9 p < 0.01 Days
T/C% (mean survival time of treated versus saline controls) ([5]; ip): 187.9%
TI% (Tumor Inhibition) ([5]; ip): 76.4%
size of the primary tumor ([5]; ip): 390 ± 21.4 mm^3
LD10 [6]: 75 mg/kg
Vmax ± SE, pERK 1/2 inhibition ([7]; 15 min): 45.92 ± 2.07
Vmax ± SE, pERK 1/2 inhibition ([7]; 30 min): 71.49 ± 0.55
Vmax ± SE, pERK 1/2 inhibition ([7]; 60 min): 74.32 ± 0.43
IC50 ([7]; 0.25 h, 15 min): > 50 µM
IC50 ([7]; 0.5 h, 30 min): 11.2 µM
IC50 ([7]; 1 h, 60 min): 7.67 µM
Vmax ± SE, pAKT 1/2 inhibition ([8]; 15 min): 79.22 ± 0.89
Vmax ± SE, pAKT 1/2 inhibition ([8]; 30 min): 81.78 ± 2.53
Vmax ± SE, pAKT 1/2 inhibition ([8]; 60 min): 82.20 ± 1.68
IC50 ([8]; 0.25 h, 15 min): 29.6 µM
IC50 ([8]; 0.5 h, 30 min): 24.9 µM
IC50 ([8]; 1 h, 60 min): 21.8 µM
Vmax ± SE, pERK 1/2 inhibition ([9]; 15 min): 73.97 ± 1.64
Vmax ± SE, pERK 1/2 inhibition ([9]; 60 min): 88.83 ± 2.13
IC50 ([9]; UWB1289, 0.25 h, 15 min): 7.02 µM
IC50 ([9]; UWB1289, 0.5 h, 30 min): 4.25 µM
IC50 ([9]; UWB1289, 1 h, 60 min): 3.67 µM
GI50 [10, 14]: 11 ± 0.6 µM
IC50 [10, 15]: 92 ± 8.4 µM
Vmax ± SE, pERK 1/2 inhibition ([11]; 15 min): 56.97 ± 0.61
Vmax ± SE, pERK 1/2 inhibition ([11]; 30 min): 66.56 ± 1.99
Vmax ± SE, pERK 1/2 inhibition ([11]; 60 min): 71.72 ± 1.86
IC50 ([11]; 0.25 h, 15 min): 25 µM
IC50 ([11]; 0.5 h, 30 min): 10.7 µM
IC50 ([11]; 1 h, 60 min): 8.56 µM
Median Overall Survival (OS) [12]: 127 days
Progression Free Survival (PFS) [12]: 34 days
Response Rate (RR) [12]: 100%
Cures (mice alive for 120 days after tumor inoculation) ([12]; ip): 3/5
MST (mean survival time) ([12]; ip): 94.8 ± 6.3 p < 0.01 Days
T/C% (mean survival time of treated versus saline controls) ([12]; ip): 187.8%
TI% (Tumor Inhibition) ([12]; ip): 131.0%
size of the primary tumor ([12]; ip): 113 ± 14 mm^3
TGI (Total Growth Inhibition) [13]: 76 ± 7.2 μΜ
